Test results taken from paper PMC10577695, “A Novel 7H-[1,2,4]Triazolo[3,4-b]thiadiazine-based Cystic Fibrosis Transmembrane Conductance Regulator Potentiator Directed toward Treatment of Cystic Fibrosis” (ACS Medicinal Chemistry Letters, 2023).

Key:
Test in all cases: CFTR current in FRT cells expressing G551D CFTR, […] compound with VX-770
Format in all cases: cell-based
[1] = target: T1, cystic fibrosis transmembrane conductance regulator (CFTR) (Homo sapiens, UniProt P13569, G551D)
[2] = target: T1, cystic fibrosis transmembrane conductance regulator (CFTR); remark: listed apart in the source
[3] = target: T1, cystic fibrosis transmembrane conductance regulator (CFTR); remark: listed apart in the source

T1 sequence (P13569 whole entry G551D): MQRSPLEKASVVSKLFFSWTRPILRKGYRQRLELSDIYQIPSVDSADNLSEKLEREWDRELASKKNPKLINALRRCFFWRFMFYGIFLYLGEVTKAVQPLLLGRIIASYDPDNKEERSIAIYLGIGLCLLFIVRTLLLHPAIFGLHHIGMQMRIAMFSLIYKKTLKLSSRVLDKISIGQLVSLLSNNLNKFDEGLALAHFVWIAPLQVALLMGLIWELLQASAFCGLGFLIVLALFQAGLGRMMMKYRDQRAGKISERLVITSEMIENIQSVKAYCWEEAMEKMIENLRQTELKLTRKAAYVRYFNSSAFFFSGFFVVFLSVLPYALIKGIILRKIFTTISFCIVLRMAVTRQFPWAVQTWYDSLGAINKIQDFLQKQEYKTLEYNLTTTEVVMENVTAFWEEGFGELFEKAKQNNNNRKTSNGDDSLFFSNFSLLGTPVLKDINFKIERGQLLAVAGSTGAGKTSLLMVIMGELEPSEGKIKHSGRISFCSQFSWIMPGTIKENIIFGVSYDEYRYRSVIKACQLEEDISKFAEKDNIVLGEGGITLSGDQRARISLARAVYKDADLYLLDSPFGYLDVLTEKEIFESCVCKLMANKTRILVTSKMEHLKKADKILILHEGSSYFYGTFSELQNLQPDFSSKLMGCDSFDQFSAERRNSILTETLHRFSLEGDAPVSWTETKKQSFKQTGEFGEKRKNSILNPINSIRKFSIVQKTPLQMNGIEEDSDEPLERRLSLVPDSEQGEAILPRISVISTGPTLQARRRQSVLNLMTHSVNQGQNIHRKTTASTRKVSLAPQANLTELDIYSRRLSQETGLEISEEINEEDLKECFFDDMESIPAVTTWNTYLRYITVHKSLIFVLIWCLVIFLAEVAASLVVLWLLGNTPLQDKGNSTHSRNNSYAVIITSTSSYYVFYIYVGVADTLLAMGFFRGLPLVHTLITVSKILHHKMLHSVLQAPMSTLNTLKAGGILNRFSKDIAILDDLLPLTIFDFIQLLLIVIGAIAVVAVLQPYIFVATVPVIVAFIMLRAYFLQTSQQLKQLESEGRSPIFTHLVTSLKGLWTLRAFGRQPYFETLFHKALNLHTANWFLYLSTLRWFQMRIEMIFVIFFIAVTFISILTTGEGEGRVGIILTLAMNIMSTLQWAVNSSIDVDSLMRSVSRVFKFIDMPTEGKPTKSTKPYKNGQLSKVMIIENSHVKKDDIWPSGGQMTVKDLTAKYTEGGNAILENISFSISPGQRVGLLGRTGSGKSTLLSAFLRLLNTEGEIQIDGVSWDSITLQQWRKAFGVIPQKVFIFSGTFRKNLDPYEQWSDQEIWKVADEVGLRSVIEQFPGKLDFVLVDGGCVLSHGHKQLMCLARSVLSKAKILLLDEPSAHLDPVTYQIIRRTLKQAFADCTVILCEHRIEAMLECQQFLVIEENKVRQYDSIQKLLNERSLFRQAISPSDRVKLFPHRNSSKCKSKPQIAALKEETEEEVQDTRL

CC(C)(C)C1=Nn2c(nnc2-c2ccc(Cl)cc2Cl)SC1 [8d]
% gain above VX-770 alone [1]: ~ 400 % gain above VX-770 alone

COc1ccc(Br)c(-c2nnc3n2N=C(C(C)C)CS3)c1 [10a]
% G551D CFTR stimulation compared to VX-770 alone [2]: 232 % G551D CFTR stimulation compared to VX-770 alone

CC(C)C1=Nn2c(nnc2-c2cc(Cl)ccc2Br)SC1 [9c]
CFTR current in FRT cells expressing G551D CFTR, 10 μM compound with VX-770 [3]: 2-bromo-5-chloro series with 9c and 9d showing the highest levels of activity
